Results reported in patent US9695155B2, “Herbicidal substituted pyrimidinyloxy benzene compounds” (E. I. DU PONT DE NEMOURS AND COMPANY, priority 2013, dated 2017).

What was measured:
[1] = tested on: pigweed; assay: Test A postemergence; assay type: in vivo, Amaranthus retroflexus; settings: 0 to 100 scale, 0 no effect, 100 complete control
In short: (§1)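 Compounds in non-phytotoxic solvent with surfactant applied as soil spray preemergence, or postemergence to plants 2-10 cm at one- to two-leaf stage, in loam/sand. After approximately 10 days in greenhouse, injury rated visually versus untreated controls, 0 (no effect) to 100 (complete control).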

[2] = tested on: rice; assay: Test B flooded paddy test; assay type: in vivo, Oryza sativa; settings: Flood, 250 g ai/ha; 0 to 100 scale where 0 is no effect and 100 is complete control
In short: (§2)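 Visual ratings on a 0 to 100 scale, where 100 means complete control, compared treated plants with controls after 13 to 15 days in a greenhouse. Treatment went into paddy water 3 cm deep over the soil, applied to plants at the 2-leaf stage.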

[3] = tested on: Italian ryegrass; assay: Test A preemergence; assay type: in vivo, Lolium multiflorum; settings: for Plant response rating, Ryegrass, Italian: 31 g ai/ha, 0 to 100 scale where 0 is no effect and 100 is complete control, visual, approximately 10 days; for Ryegrass, Italian plant response rating (0 to 100 scale): 125 g ai/ha
In short: as §1

[4] = tested on: galium; assay: Test A postemergence; assay type: in vivo, Galium aparine; settings: 0 to 100 scale, 0 no effect, 100 complete control
In short: as §1

[5] = tested on: ragweed; assay: Test A postemergence; assay type: in vivo, Ambrosia elatior; settings: 0 to 100 scale, 0 no effect, 100 complete control
Excerpt: (§3) Seeds of plant species selected from barnyardgrass (Echinochloa crus-galli), kochia (Kochia scoparia), ragweed (common ragweed, Ambrosia elatior), Italian ryegrass (Lolium multiflorum), large (Lg) crabgrass (Digitaria sanguinalis), giant foxtail (Setaria faberii), morningglory (Ipomoea spp.), pigweed (Amaranthus retroflexus), velvetleaf (Abutilon theophrasti), wheat (Triticum aestivum), and corn (Zea mays) were planted into a blend of loam soil and sand and treated preemergence with a directed soil spray using test chemicals formulated in a non-phytotoxic solvent mixture which included a surfactant.
(§4) At the same time, plants selected from these crop and weed species and also blackgrass (Alopecurus myosuroides), and galium (catchweed bedstraw, Galium aparine) were planted in pots containing the same blend of loam soil and sand and treated with postemergence applications of test chemicals formulated in the same manner. Plants ranged in height from 2 to 10 cm and were in the one- to two-leaf stage for the postemergence treatment. Treated plants and untreated controls were maintained in a greenhouse for approximately 10 days, after which time all treated plants were compared to untreated controls and visually evaluated for injury. Plant response ratings, summarized in Table A, are based on a 0 to 100 scale where 0 is no effect and 100 is complete control. A dash (-) response means no test result.

[6] = tested on: wheat; assay: Test A postemergence; assay type: in vivo, Triticum aestivum; settings: 0 to 100 scale, 0 no effect, 100 complete control
In short: as §1

[7] = tested on: barnyardgrass; assay: Test B flooded paddy test; assay type: in vivo, Echinochloa crus-galli; settings: Flood, 250 g ai/ha; 0 to 100 scale where 0 is no effect and 100 is complete control
In short: as §2

[8] = tested on: barnyardgrass; assay: Test A preemergence; assay type: in vivo, Echinochloa crus-galli; settings: for Plant response rating, Barnyardgrass: 31 g ai/ha, 0 to 100 scale where 0 is no effect and 100 is complete control, visual, approximately 10 days; for Barnyardgrass plant response rating (0 to 100 scale, 0 is no effect, 100 is complete control): 125 g ai/ha
In short: as §1

[9] = tested on: barnyardgrass; assay: Test A postemergence; assay type: in vivo, Echinochloa crus-galli; settings: 0 to 100 scale, 0 no effect, 100 complete control
In short: as §1

[10] = tested on: ragweed; assay: Test A preemergence; assay type: in vivo, Ambrosia elatior; settings: for Plant response rating, Ragweed: 31 g ai/ha, 0 to 100 scale where 0 is no effect and 100 is complete control, visual, approximately 10 days; for Ragweed plant response rating (0 to 100 scale): 125 g ai/ha
Excerpt: as §3, §4

[11] = tested on: blackgrass; assay: Test A postemergence; assay type: in vivo, Alopecurus myosuroides; settings: 0 to 100 scale, 0 no effect, 100 complete control
Excerpt: as §3, §4

[12] = tested on: giant foxtail; assay: Test A preemergence; assay type: in vivo, Setaria faberii; settings: for Plant response rating, Foxtail, Giant: 31 g ai/ha, 0 to 100 scale where 0 is no effect and 100 is complete control, visual, approximately 10 days; for Foxtail, Giant plant response rating (0 to 100 scale): 125 g ai/ha
In short: as §1

[13] = tested on: sedge, umbrella; assay: Test B flooded paddy test; assay type: in vivo, Cyperus difformis; settings: Flood, 250 g ai/ha; 0 to 100 scale where 0 is no effect and 100 is complete control
In short: as §2

[14] = tested on: pigweed; assay: Test A preemergence; assay type: in vivo, Amaranthus retroflexus; settings: for Plant response rating, Pigweed: 31 g ai/ha, 0 to 100 scale where 0 is no effect and 100 is complete control, visual, approximately 10 days; for Pigweed plant response rating (0 to 100 scale): 125 g ai/ha
In short: as §1

[15] = tested on: corn; assay: Test A postemergence; assay type: in vivo, Zea mays; settings: 0 to 100 scale, 0 no effect, 100 complete control
In short: as §1

[16] = tested on: kochia; assay: Test A preemergence; assay type: in vivo, Kochia scoparia; settings: for Plant response rating, Kochia: 31 g ai/ha, 0 to 100 scale where 0 is no effect and 100 is complete control, visual, approximately 10 days; for Kochia plant response rating (0 to 100 scale): 125 g ai/ha
In short: as §1

[17] = tested on: kochia; assay: Test A postemergence; assay type: in vivo, Kochia scoparia; settings: 0 to 100 scale, 0 no effect, 100 complete control
Excerpt: as §3, §4

[18] = tested on: Italian ryegrass; assay: Test A postemergence; assay type: in vivo, Lolium multiflorum; settings: 0 to 100 scale, 0 no effect, 100 complete control
In short: as §1

[19] = tested on: giant foxtail; assay: Test A postemergence; assay type: in vivo, Setaria faberii; settings: 0 to 100 scale, 0 no effect, 100 complete control
In short: as §1

[20] = tested on: Heteranthera limosa; assay: Test B flooded paddy test; assay type: in vivo; settings: Flood, 250 g ai/ha; 0 to 100 scale where 0 is no effect and 100 is complete control
In short: as §2

FCc1cccc(Oc2ncc(F)cn2)c1-n1cc(Cl)cn1 [Compound 249]
Plant response rating, Pigweed ([1]; 31 g ai/ha): 60
Plant response rating, Pigweed ([1]; 125 g ai/ha): 100
Plant response rating, Rice [2]: 0
Plant response rating, Ryegrass, Italian [3]: 0
Ryegrass, Italian plant response rating (0 to 100 scale) [3]: 30
Plant response rating, Galium ([4]; 31 g ai/ha): 20
Plant response rating, Galium ([4]; 125 g ai/ha): 30
Plant response rating, Ragweed ([5]; 31 g ai/ha): 10
Plant response rating, Ragweed ([5]; 125 g ai/ha): 70
Plant response rating, Wheat ([6]; 31 g ai/ha): 0
Plant response rating, Wheat ([6]; 125 g ai/ha): 0
Plant response rating, Barnyardgrass [7]: 0
Plant response rating, Barnyardgrass [8]: 0
Barnyardgrass plant response rating (0 to 100 scale, 0 is no effect, 100 is complete control) [8]: 0
Plant response rating, Barnyardgrass ([9]; 31 g ai/ha): 0
Plant response rating, Barnyardgrass ([9]; 125 g ai/ha): 60
Plant response rating, Ragweed [10]: 0
Ragweed plant response rating (0 to 100 scale) [10]: 0
Plant response rating, Blackgrass ([11]; 31 g ai/ha): 60
Plant response rating, Blackgrass ([11]; 125 g ai/ha): 80
Plant response rating, Foxtail, Giant [12]: 0
Foxtail, Giant plant response rating (0 to 100 scale) [12]: 0
Plant response rating, Sedge, Umbrella [13]: 60
Plant response rating, Pigweed [14]: 90
Pigweed plant response rating (0 to 100 scale) [14]: 90
Plant response rating, Corn ([15]; 31 g ai/ha): 0
Plant response rating, Corn ([15]; 125 g ai/ha): 10
Plant response rating, Kochia [16]: 0
Kochia plant response rating (0 to 100 scale) [16]: 40
Plant response rating, Kochia ([17]; 31 g ai/ha): 20
Plant response rating, Kochia ([17]; 125 g ai/ha): 80
Plant response rating, Ryegrass, Italian ([18]; 31 g ai/ha): 0
Plant response rating, Ryegrass, Italian ([18]; 125 g ai/ha): 0
Plant response rating, Foxtail, Giant ([19]; 31 g ai/ha): 0
Plant response rating, Foxtail, Giant ([19]; 125 g ai/ha): 60
Plant response rating, Ducksalad [20]: 70

Fc1cccc(Oc2ncc(Cl)cn2)c1-n1cc(OC(F)F)cn1 [Compound 271]
Plant response rating, Pigweed ([1]; 31 g ai/ha): 70
Plant response rating, Pigweed ([1]; 125 g ai/ha): 100
Plant response rating, Rice [2]: 0
Plant response rating, Ryegrass, Italian [3]: 0
Ryegrass, Italian plant response rating (0 to 100 scale) [3]: 10
Plant response rating, Galium ([4]; 31 g ai/ha): 70
Plant response rating, Galium ([4]; 125 g ai/ha): 100
Plant response rating, Ragweed ([5]; 31 g ai/ha): 0
Plant response rating, Ragweed ([5]; 125 g ai/ha): 80
Plant response rating, Wheat ([6]; 31 g ai/ha): 0
Plant response rating, Wheat ([6]; 125 g ai/ha): 40
Plant response rating, Barnyardgrass [7]: 0
Plant response rating, Barnyardgrass [8]: 20
Barnyardgrass plant response rating (0 to 100 scale, 0 is no effect, 100 is complete control) [8]: 100
Plant response rating, Barnyardgrass ([9]; 31 g ai/ha): 10
Plant response rating, Barnyardgrass ([9]; 125 g ai/ha): 80
Plant response rating, Ragweed [10]: 0
Ragweed plant response rating (0 to 100 scale) [10]: 20
Plant response rating, Blackgrass ([11]; 31 g ai/ha): 10
Plant response rating, Blackgrass ([11]; 125 g ai/ha): 80
Plant response rating, Foxtail, Giant [12]: 40
Foxtail, Giant plant response rating (0 to 100 scale) [12]: 100
Plant response rating, Sedge, Umbrella [13]: 60
Plant response rating, Pigweed [14]: 90
Pigweed plant response rating (0 to 100 scale) [14]: 100
Plant response rating, Corn ([15]; 31 g ai/ha): 20
Plant response rating, Corn ([15]; 125 g ai/ha): 30
Plant response rating, Kochia [16]: 70
Kochia plant response rating (0 to 100 scale) [16]: 100
Plant response rating, Kochia ([17]; 31 g ai/ha): 70
Plant response rating, Kochia ([17]; 125 g ai/ha): 100
Plant response rating, Ryegrass, Italian ([18]; 31 g ai/ha): 0
Plant response rating, Ryegrass, Italian ([18]; 125 g ai/ha): 30
Plant response rating, Foxtail, Giant ([19]; 31 g ai/ha): 10
Plant response rating, Foxtail, Giant ([19]; 125 g ai/ha): 90
Plant response rating, Ducksalad [20]: 90
